Patent publication US12398141B2 (SHANGHAI SYNERGY PHARMACEUTICAL SCIENCES CO., LTD, priority 2019, dated 2025)

Experiments:
[1] = tested on: TF-1 cell; experiment: TF-1 cell proliferation test; assay type: cell-based; conditions: Homo sapiens, 72 h
Experimental: Inhibiting test of the compounds of the invention on proliferation of Blast T cell and TF-1 cell (American type culture collection) was carried out by the following method. The tested compounds […], and […] were dissolved in dimethyl sulfoxide from 0.0006 to 10 μM in quadruplicate dilutions. […] The luminescence value was read on Microplate Reader (Molecular Device). […] The IC50 values of the corresponding compounds were then obtained by fitting by using the XLFit fitting tool in excel.

[2] = tested on: male ICR mice; experiment: Carrageenan-induced paw swelling in mice; assay type: in vivo; conditions: 10 mg/kg intragastric
Experimental: (§1) The inhibiting effects of compounds H01, H07, H11, H12, H14, H15, H22, H25, H29, H30, H33, H39 and H44 on paw swelling in mice were determined after intragastric administration by using male ICR mice (ShanghaiSippr-BK laboratory animal Co. Ltd.), aged 8 weeks and weighing 22-24 g as test animals. The anti-inflammatory pharmacodynamics characteristic of the compounds of the invention was discussed.
A certain amount of compounds were taken and dissolved in 4% Tween 80/0.5% hydroxy propyl methyl cellulose solution. A volume of intragastric administration in mice was 10 ml/kg.
Mice were given 10 mg/kg compounds H01, H07, H11, H12, H14, H15, H22, H25, H29, H30, H33, H39, and H44 and the positive drug indomethacin (Diamond Reagent Co., Ltd., China) by intragastric administration at the dosages shown in the table below and 20 μL 1% (W/V) carrageenan was injected subcutaneously into the plantar 0.5 h later. A paw volume was measured with a paw swelling meter before and at different time points after modeling (0.5 h, 1 h and 2 h). According to the formula: paw swelling rate=(paw volume after administration−basic paw volume)/basic paw volume×100, the inhibiting effect of the compounds on paw volume was calculated. The basic paw volume was a paw volume before administration.

[3] = tested on: Sprague-Dawley (SD) mice; experiment: Concanavalin-induced paw swelling in mice; assay type: in vivo; conditions: 10 mg/kg intragastric
Experimental: as §1, with “H13,” for “H01, H07, H11, H12,”, “H09, H11” for “H15, H22, H25, H29, H30, H33, H39”, “compounds of Example 12” for “H44”, “Sprague-Dawley (SD)” for “male ICR”, “6-7” for “8”, “160-180” for “22-24”
A certain amount of compounds were taken and dissolved in 4% Tween 80/0.5% hydroxy propyl methyl cellulose solution.
Mice were given compounds H01, H07, H11, H12, H14, H15, H22, H25, H29, H30, H33, H39, and H44 and the positive drug indomethacin (Diamond Reagent Co., Ltd., China) by intragastric administration at the dosages shown in the table below and 0.1 ml 0.03% (W/V) concanavalin was injected subcutaneously into the plantar 0.5 h later. A paw volume was measured with a paw swelling meter before modeling and 1 h, 2 h, 4 h and 6 h after modeling. According to the formula: paw swelling rate=(paw volume after administration−basic paw volume)/basic paw volume×100, the inhibiting effect of the compounds on paw volume was calculated. The basic paw volume was a paw volume before administration.

[4] = Pharmacokinetic test after intragastric administration; assay type: in vivo; conditions: Sprague-Dawley, mouse, plasma, po, SD mice, 5 mg/kg intragastric
Experimental: Drug concentrations of compounds H01, H07, H11, H12, H14, H15, H22, H25, H29, H30, H33, H39 and H44 intragastrically administrated in plasma by using LC/MS/MS method at various time points were determined by using Sprague-Dawley (SD) […], aged 7-8 weeks and weighing […] as test animals. Pharmacokinetic behavior of the compounds of the invention in […] was studied and its pharmacokinetic characteristics were evaluated.
A certain amount of compounds was taken and dissolved in 50% PEG400/water to prepare a uniform solution.
Mice were administered intragastrically with the above compounds with a dosage of 5 mg/kg. Blood (0.2 ml) was taken from orbits before administration and 0.083 h, 0.25 h, 0.5 h, 1.0 h, 2.0 h, 4.0 h, 6.0 h, 8.0 h, 12.0 h and 24.0 h after administration. The blood was placed in anticoagulant tubes containing dipotassium ethylene glycol diethyl ether diamine tetraacetic acid, centrifugated at 6000 rpm at 4° C. for 10 minutes to separate plasma and saved at −80° C.
50 μL plasma at various time was taken and 150 μL acetonitrile solution containing internal standard tolbutamide (Sigma, USA) was added, mixed and stirred for 5 minutes. After centrifugation for 5 minutes at 12,000 rpm, 100 μL supernatant was taken, mixed with 200 μL water, following by sample injection and analysis.
Liquid chromatogram system was LC-20AD UFLC High Performance Liquid Chromatography system. Mass spectrum system was AB Sciex API4000 triple quadrupole mass spectrometer equipped with Electron Spray Ionization (ESI) (Applied Biosystems, Canada). A software for controlling liquid chromatography-mass spectrometry and quantitative analysis was Anna Rust 1.6 (Applied Biosystems, Canada). Pharmacokinetic parameters were analyzed by WinNonlin (version 5.2, Pharsight, Mountain View, […]) non-compartment model.
The test compound was dissolved in dimethyl sulfoxide to prepare a stock solution with a concentration of 1 mg/mL. The solution was diluted with 50% acetonitrile to obtain a series of standard working solutions with concentrations of 10 μg/mL, 3 μg/mL, 1 μg/mL, 0.3 μg/mL, 0.1 μg/mL, 0.03 μg/mL and 0.01 μg/mL, and a series of standard quality control solutions with concentrations of 8 μg/mL, 0.5 μg/mL, 0.03 μg/mL. 5 μL standard solution was mixed with 45 μL blank plasma substrate uniformly to obtain standard solutions of each concentration of a standard curve (1000 ng/mL, 500 ng/mL, 200 ng/mL, 100 ng/mL, 10 ng/mL, 5 ng/mL, 2 and 1 ng/mL) and quality control solutions (plasma samples: 800 ng/mL, 50 and 3 ng/mL).
Internal standard tolbutamide solid powder was dissolved in dimethyl sulfoxide to prepare a 1 mg/mL stock solution. The stock solution was diluted with 100% acetonitrile to obtain 200 ng/mL solution as a protein precipitation solution.

[5] = tested on: Blast T cell; experiment: Cell proliferation test of IL-2 stimulated Blast T cell; assay type: cell-based; conditions: Homo sapiens; IL-2 stimulated Blast T cell proliferation, 72 hours
Experimental: Inhibiting test of the compounds of the invention on proliferation of Blast T cell and TF-1 cell (American type culture collection) was carried out by the following method. The tested compounds […], and […] were dissolved in dimethyl sulfoxide from 0.0006 to 10 μM in quadruplicate dilutions. […] 10 μg/ml […] was added to stimulate and obtain cells with a density of 2×10^6/mL, which were incubated for 3 days. The cells were washed with phosphate buffer for three times and IL-2 (100 u/ml) was added to stimulate for 1 week. Cells were suspended using the culture medium and seeded at 5×10^4 cell/well density into 96-well plates, and incubated for 1 h with the prepared test compound or DMSO control at various concentrations from 0.0006 to 10 μM diluted by 4-fold volume. After incubation with 20 u/ml of IL-2 (50 μl/well without reference well) for 72 hours, Celltiter Glo® reagent (Promega, G7571) was added and mixed for 5 minutes, then incubated for 30 minutes at room temperature. The luminescence value was read on SpectraMax L (Molecular Device). […] The IC50 values of the corresponding compounds were then obtained by fitting by using the XLFit fitting tool in excel.

[6] = biological target: JAK3 (Homo sapiens (Human), UniProt P52333); experiment: JAK3 LANCE Ultra kinase assay; assay type: biochemical; conditions: 4 uM ATP
[7] = biological target: JAK2 (Homo sapiens (Human), UniProt O60674); experiment: JAK2 LANCE Ultra kinase assay; assay type: biochemical; conditions: 12 uM ATP
[8] = biological target: JAK1 (Homo sapiens (Human), UniProt P23458); experiment: JAK1 LANCE Ultra kinase assay; assay type: biochemical; conditions: for IC50: 38 uM ATP; for JAK2/JAK1: ratio of IC50 JAK2 to IC50 JAK1
Method in brief: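 JAK1 preincubated with compound 10 min at room temperature, then ULight-JAK-1 peptide/ATP added for 90 min at room temperature; stopped with EDTA, Eu-W1024 anti-phosphotyrosine TR-FRET read after 60 min. Inhibition normalised to DMSO and blank wells; IC50 from curve fit.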

JAK2, sequence (O60674 whole entry): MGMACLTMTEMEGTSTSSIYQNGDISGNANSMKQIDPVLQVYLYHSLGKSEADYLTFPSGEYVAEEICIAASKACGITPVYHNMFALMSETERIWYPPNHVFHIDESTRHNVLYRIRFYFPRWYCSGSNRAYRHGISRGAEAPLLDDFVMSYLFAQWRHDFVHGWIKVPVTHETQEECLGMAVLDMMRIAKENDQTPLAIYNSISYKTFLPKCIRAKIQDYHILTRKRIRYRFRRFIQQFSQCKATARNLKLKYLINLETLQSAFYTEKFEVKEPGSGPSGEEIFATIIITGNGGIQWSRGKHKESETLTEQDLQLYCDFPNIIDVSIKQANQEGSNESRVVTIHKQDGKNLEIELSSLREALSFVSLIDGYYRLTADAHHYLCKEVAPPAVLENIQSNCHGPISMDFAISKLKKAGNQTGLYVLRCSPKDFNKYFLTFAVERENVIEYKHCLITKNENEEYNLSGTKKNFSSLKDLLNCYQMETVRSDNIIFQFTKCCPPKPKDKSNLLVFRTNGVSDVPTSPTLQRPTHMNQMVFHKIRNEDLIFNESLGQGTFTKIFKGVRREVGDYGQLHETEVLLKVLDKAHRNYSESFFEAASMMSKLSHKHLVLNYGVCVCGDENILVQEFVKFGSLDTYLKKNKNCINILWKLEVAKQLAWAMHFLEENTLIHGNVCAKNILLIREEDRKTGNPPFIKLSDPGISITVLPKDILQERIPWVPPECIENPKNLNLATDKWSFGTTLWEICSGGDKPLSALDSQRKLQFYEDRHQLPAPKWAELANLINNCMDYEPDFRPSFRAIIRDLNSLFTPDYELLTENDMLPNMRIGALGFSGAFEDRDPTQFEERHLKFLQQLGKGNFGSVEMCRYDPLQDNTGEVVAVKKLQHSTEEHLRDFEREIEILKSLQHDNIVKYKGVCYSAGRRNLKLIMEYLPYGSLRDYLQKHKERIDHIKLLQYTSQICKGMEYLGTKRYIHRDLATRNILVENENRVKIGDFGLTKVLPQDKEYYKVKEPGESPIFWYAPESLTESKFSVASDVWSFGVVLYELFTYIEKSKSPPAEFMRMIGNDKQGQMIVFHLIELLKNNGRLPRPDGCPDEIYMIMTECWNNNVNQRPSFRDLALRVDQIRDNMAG
JAK1, sequence (P23458 whole entry): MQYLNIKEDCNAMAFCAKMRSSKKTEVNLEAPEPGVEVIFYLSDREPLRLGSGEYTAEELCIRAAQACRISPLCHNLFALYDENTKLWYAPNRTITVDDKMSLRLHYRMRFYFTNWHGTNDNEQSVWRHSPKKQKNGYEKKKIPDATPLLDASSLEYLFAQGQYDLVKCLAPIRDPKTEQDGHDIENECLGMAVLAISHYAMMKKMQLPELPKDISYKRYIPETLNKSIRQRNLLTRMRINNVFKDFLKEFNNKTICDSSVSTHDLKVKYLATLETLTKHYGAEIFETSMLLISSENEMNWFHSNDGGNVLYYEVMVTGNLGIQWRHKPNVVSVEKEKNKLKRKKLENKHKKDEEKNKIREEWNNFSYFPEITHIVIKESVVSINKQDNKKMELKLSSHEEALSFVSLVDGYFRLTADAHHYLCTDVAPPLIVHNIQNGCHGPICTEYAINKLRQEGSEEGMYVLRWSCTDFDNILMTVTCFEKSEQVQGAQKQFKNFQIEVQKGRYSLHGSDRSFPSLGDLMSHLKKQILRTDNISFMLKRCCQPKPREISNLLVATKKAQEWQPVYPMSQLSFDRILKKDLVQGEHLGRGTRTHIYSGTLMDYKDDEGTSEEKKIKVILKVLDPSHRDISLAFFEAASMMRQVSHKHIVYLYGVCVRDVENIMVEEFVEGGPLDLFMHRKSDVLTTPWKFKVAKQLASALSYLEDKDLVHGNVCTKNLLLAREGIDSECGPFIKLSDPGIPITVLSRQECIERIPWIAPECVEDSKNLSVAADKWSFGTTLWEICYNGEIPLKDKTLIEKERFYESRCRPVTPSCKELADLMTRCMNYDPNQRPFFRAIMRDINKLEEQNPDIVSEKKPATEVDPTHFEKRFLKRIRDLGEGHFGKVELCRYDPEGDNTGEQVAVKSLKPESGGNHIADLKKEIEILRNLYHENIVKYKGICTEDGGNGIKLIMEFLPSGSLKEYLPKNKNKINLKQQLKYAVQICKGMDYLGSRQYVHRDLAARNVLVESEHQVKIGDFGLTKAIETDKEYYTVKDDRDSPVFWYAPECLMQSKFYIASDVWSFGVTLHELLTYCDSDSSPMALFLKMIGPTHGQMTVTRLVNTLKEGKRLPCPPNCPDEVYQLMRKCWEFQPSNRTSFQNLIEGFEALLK
JAK3, sequence (P52333 whole entry): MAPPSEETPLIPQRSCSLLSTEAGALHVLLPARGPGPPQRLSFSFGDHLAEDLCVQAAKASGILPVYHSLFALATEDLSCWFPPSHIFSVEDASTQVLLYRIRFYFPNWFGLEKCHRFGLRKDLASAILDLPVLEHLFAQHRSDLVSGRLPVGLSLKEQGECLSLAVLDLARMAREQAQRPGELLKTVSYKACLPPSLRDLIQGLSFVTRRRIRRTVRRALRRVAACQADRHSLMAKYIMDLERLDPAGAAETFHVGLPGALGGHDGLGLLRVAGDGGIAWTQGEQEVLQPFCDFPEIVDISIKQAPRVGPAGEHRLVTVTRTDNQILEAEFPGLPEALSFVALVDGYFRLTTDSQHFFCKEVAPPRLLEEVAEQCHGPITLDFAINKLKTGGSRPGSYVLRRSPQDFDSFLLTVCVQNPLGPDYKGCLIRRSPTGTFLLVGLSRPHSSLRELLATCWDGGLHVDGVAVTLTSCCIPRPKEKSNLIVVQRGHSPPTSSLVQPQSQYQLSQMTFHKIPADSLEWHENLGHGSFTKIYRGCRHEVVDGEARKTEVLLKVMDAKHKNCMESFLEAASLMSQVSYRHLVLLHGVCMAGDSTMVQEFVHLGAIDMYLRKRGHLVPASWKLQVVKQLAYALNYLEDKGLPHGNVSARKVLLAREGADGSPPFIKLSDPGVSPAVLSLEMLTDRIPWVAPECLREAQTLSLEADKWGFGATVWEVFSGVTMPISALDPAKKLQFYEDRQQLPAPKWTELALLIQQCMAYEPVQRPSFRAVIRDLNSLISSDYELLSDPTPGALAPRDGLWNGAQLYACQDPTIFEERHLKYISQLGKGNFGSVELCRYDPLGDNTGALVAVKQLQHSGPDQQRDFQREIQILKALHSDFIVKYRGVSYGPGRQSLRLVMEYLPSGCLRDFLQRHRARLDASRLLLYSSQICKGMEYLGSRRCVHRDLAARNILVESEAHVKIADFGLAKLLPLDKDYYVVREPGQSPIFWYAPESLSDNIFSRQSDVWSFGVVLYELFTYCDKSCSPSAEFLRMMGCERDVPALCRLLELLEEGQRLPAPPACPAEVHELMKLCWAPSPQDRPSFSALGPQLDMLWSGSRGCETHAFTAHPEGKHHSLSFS

Row | Compound | IC50 [1] | Paw swelling_0.5 h (%) ([2]; 0.5 h) | Paw swelling rate_1 h (%) ([2]; 1 h) | Paw swelling rate_2 h (%) ([2]; 2 h) | Paw swelling rate_1 h (%) ([3]; 1 h) | Paw swelling rate_2 h (%) ([3]; 2 h) | Paw swelling rate_4 h (%) ([3]; 4 h) | Paw swelling rate_6 h (%) ([3]; 6 h) | AUC(0-t) ([4]; read-out: Area under the curve (AUC0-24, ng/ml · h)) | Cmax ([4]; read-out: Plasma concentration (Cmax, ng/ml)) | half-life ([4]; read-out: half life (T1/2, h) (converted)) | IC50 [5] | IC50 [6] | IC50 [7] | IC50 [8] | JAK2/JAK1 [8]
1 | CC[C@@H]1CN(C(=O)NCC(F)(F)F)CC1Nc1c(C#N)cnc2[nH]ccc12 (some centres unmarked) [Compound H01] | 0.67 µM | 33.99 ± 1.69% | 40.93 ± 1.64% | 41.56 ± 5.23% | 25.70 ± 1.50% | 25.20 ± 2.40% | 31.20 ± 3.10% | 30.20 ± 3.10% | 1720 ± 220 ng·h/mL | 578 ± 72 ng/mL | 2.13 ± 0.27 h | 0.013 µM | – | – | – | –
2 | C[C@@H]1CN(C(=O)NCC(F)(F)F)C[C@@H]1Nc1c(C#N)cnc2[nH]ccc12 [Compound H40] | 1.24 µM | – | – | – | – | – | – | – | – | – | – | 0.036 µM | 144 nM | 15.6 nM | 2.6 nM | 6.00
3 | COCCOC1CCCN(S(=O)(=O)C[C@H]2CC[C@@H](N(C)c3c(C#N)cnc4[nH]ccc34)C2)C1 (some centres unmarked) [Compound H70] | 1.53 µM | – | – | – | – | – | – | – | – | – | – | 0.048 µM | 47 nM | 13.9 nM | 6.7 nM | 2.07
4 | COc1noc(NC(=O)N2C[C@H]3C[C@H](N(C)c4c(C#N)cnc5[nH]ccc45)C[C@H]3C2)n1 [Compound H43, (3aR,5s,6aS)-5-((5-cyano-1H-pyrrolo[2,3-b]pyridin-4-yl)(methyl)amino)-N-(3-methoxy-1,2,4-oxadiazole-5-yl)hexahydrocyclopentadiene[c]pyrrole-2(1H)-carboxamide] | 1.44 µM | – | – | – | – | – | – | – | – | – | – | 0.043 µM | 125 nM | 20 nM | 2.4 nM | 8.33
5 | CCc1nsc(NC(=O)N2C[C@H]3C[C@H](N(C)c4c(C#N)cnc5[nH]ccc45)C[C@H]3C2)n1 [Compound H08, (3aR,5s,6aS)-4-({2-[(3-ethyl-1,2,4-thiadiazole-5-yl)carbamoyl]-hexahydrocyclopenta[c]pyrrole-5-yl}-methyl-amino)-1H-pyrrolo[2,3-b]pyridin-5-carbonitrile] | 1.3 µM | – | – | – | – | – | – | – | – | – | – | 0.026 µM | 63 nM | 3 nM | 0.39 nM | 7.69
6 | CC[C@@H]1CN(C(=O)NCC(F)(F)F)C[C@@H]1Nc1c(C(F)(F)F)cnc2[nH]ccc12 (relative stereo) [Compound H92, (cis)-3-ethyl-N-(2,2,2-trifluoroethyl)-4-((5-(trifluoromethyl)-1H-pyrrolo[2,3-b]pyridin-4-yl)amino)pyrrolidin-1-carboxamide] | 0.91 µM | – | – | – | – | – | – | – | – | – | – | 0.027 µM | 258 nM | 14.9 nM | 8.21 nM | 1.81
7 | CN(c1c(C#N)cnc2[nH]ccc12)[C@H]1C[C@@H](NS(=O)(=O)c2cccc3nonc23)C1 [Compound H18, (cis)-4-{[3-(benzo[c][1,2,5]oxadiazole-4-sulfonamido)-cyclobutyl-1-yl]-methyl-amino}-1H-pyrrolo[2,3-b]pyridin-5-carbonitrile] | 1.56 µM | – | – | – | – | – | – | – | – | – | – | 0.04 µM | 40 nM | 5.7 nM | 0.65 nM | –
8 | CC[C@@H]1CN(C(=O)CC(F)(F)F)C[C@@H]1N(C)c1c(C#N)cnc2[nH]ccc12 (relative stereo) [Compound H03, (cis)-4-{[4-ethyl-1-(3,3,3-trifluoropropionyl)pyrrolidin-3-yl]-methyl-amino}-1H-pyrrolo[2,3-b]pyridin-5-carbonitrile] | 0.76 µM | – | – | – | – | – | – | – | – | – | – | 0.027 µM | 133 nM | 22 nM | 2.86 nM | 7.69
9 | CC[C@@H]1CN(C(=O)NC(C)C(C)C)C[C@@H]1Nc1c(C#N)cnc2[nH]ccc12 (relative stereo) [Compound H85, (cis)-3-((5-cyano-1H-pyrrolo[2,3-b]pyridin-4-yl)amino)-4-ethyl-N-(3-methylbutane-2-yl) pyrrolidin-1-carboxamide] | 1.47 µM | – | – | – | – | – | – | – | – | – | – | 0.032 µM | 48 nM | 15.7 nM | 5.47 nM | 2.86
